Assay results reported in patent US20160168130A1, “HETEROARYL SUBSTITUTED PYRAZOLES” (BAYER PHARMA AKTIENGESELLSCHAFT, priority 2013, published 2016).

Assays:
[1] = tested on: HeLa human cervical cancer cell line; assay: Proliferation assay (crystal violet staining); format: cell-based; details: 96 h, HeLa cells, 4 days incubation, median, read-out: Biological Assay 2: Proliferation assay (HeLa cell line) median IC50
Experimental: Cultivated tumor cells (cells were ordered from ATCC) were plated at a density of 3000 cells/well in a 96-well multititer plate in 200 μL of growth medium supplemented 10% fetal calf serum. After 24 hours, the cells of one plate (zero-point plate) were stained with crystal violet (see below), while the medium of the other plates was replaced by fresh culture medium (200 μL), to which the test substances were added in various concentrations (0 μM, as well as in the range of 0.001-10 μM; the final concentration of the solvent dimethyl sulfoxide was 0.5%). The cells were incubated for 4 days in the presence of test substances. Cell proliferation was determined by staining the cells with crystal violet: the cells were fixed by adding […] of an 11% glutaric aldehyde solution for 15 minutes at room temperature. After three washing cycles of the fixed cells with water, the plates were dried at room temperature. The cells were stained by adding 100 μL/measuring point of a 0.1% crystal violet solution (pH 3.0). After three washing cycles of the stained cells with water, the plates were dried at room temperature. The dye was dissolved by adding 100 μL/measuring point of a 10% acetic acid solution. Absorbtion was determined by photometry at a wavelength of 595 nm. The change of cell number, in percent, was calculated by normalization of the measured values to the absorbtion values of the zero-point plate(=0%) and the absorbtion of the untreated (0 μm) cells(=100%). The IC50 values were determined by means of a 4 parameter fit.

[2] = target: T1, catalytic domain of human Bub1 (amino acids 704-1085) (Homo sapiens, UniProt O43683); assay: Bub1 kinase assay (TR-FRET); format: biochemical; details: 10 μM ATP, 1 μM peptide substrate, median, read-out: Biological Assay 1: Bub1 kinase assay median IC50
T1 construct: catalytic domain of human Bub1 (amino acids 704-1085); His6 (N); made in house; host or cells: Hi5 insect cells
Excerpt: Bub1-inhibitory activities of compounds described in the present invention were quantified using a time-resolved fluorescence energy transfer (TR-FRET) kinase assay which measures phosphorylation of the synthetic peptide Biotin-Ahx-VLLPKKSFAEPG (C-terminus in amide form), purchased from e.g. Biosyntan (Berlin, Germany) by the (recombinant) catalytic domain of human Bub1 (amino acids 704-1085), expressed in Hi5 insect cells with an N-terminal His6-tag and purified by affinity-(Ni-NTA) and size exclusion chromatography.
In a typical assay 11 different concentrations of each compound (0.1 nM, 0.33 nM, 1.1 nM, 3.8 nM, 13 nM, 44 nM, 0.15 μM, 0.51 μM, 1.7 μM, 5.9 μM and 20 μM) were tested in duplicate within the same microtiter plate. To this end, 100-fold concentrated compound solutions (in DMSO) were previously prepared by serial dilution (1:3.4) of 2 mM stocks in a clear low volume 384-well source microtiter plate (Greiner Bio-One, Frickenhausen, Germany), from which 50 nL of compounds were transferred into a black low volume test microtiter plate from the same supplier. Subsequently, 2 μL of Bub1 (the final concentration of Bub1 was adjusted depending on the activity of the enzyme lot in order to be within the linear dynamic range of the assay: typically ˜200 ng/mL were used) in aqueous assay buffer [50 mM Tris/HCl pH 7.5, 10 mM magnesium chloride (MgCl2), 200 mM potassium chloride (KCl), 1.0 mM dithiothreitol (DTT), 0.1 mM sodium ortho-vanadate, 1% (v/v) glycerol, 0.01% (w/v) bovine serum albumine (BSA), 0.005% (v/v) Trition X-100 (Sigma), 1× Complete EDTA-free protease inhibitor mixture (Roche)] were added to the compounds in the test plate and the mixture was incubated for 15 min at 22° C. to allow pre-equilibration of the putative enzyme-inhibitor complexes before the start of the kinase reaction, which was initiated by the addition of 3 μL 1.67-fold concentrated solution (in assay buffer) of adenosine-tri-phosphate (ATP, 10 μM final concentration) and peptide substrate (1 μM final concentration). The resulting mixture (5 μL final volume) was incubated at 22° C. during 60 min., and the reaction was stopped by the addition of 5 μL of an aqueous EDTA-solution (50 mM EDTA, in 100 mM HEPES pH 7.5 and 0.2% (w/v) bovine serum albumin) which also contained the TR-FRET detection reagents (0.2 μM streptavidin-XL665 [Cisbio Bioassays, Codolet, France] and 1 nM anti-phosho-Serine antibody [Merck Millipore, cat. #35-001] and 0.4 nM LANCE EU-W1024 labeled anti-mouse IgG antibody [Perkin-Elmer, product no. AD0077, alternatively a Terbium-cryptate-labeled anti-mouse IgG antibody from Cisbio Bioassays can be used]). The stopped reaction mixture was further incubated 1 h at 22° C. in order to allow the formation of complexes between peptides and detection reagents. Subsequently, the amount of product was evaluated by measurement of the resonance energy transfer from the Eu-chelate-antibody complex recognizing the Phosphoserine residue to the streptavidin-XL665 bound to the biotin moiety of the peptide. To this end, the fluorescence emissions at 620 nm and 665 nm after excitation at 330-350 nm were measured in a TR-FRET plate reader, e.g. a Rubystar or Pherastar (both from BMG Labtechnologies, Offenburg, Germany) or a Viewlux (Perkin-Elmer) and the ratio of the emissions (665 nm/622 nm) was taken as indicator for the amount of phosphorylated substrate. The data were normalised using two sets of (typically 32—) control wells for high—(=enzyme reaction without inhibitor=0% =Minimum inhibition) and low—(=all assay components without enzyme=100%=Maximum inhibition) Bub1 activity. IC50 values were calculated by fitting the normalized inhibition data to a 4-parameter logistic equation (Minimum, Maximum, IC50, Hill; Y=Max+(Min−Max)/(1+(X/IC50)Hill)).

T1 sequence (O43683 704-1085): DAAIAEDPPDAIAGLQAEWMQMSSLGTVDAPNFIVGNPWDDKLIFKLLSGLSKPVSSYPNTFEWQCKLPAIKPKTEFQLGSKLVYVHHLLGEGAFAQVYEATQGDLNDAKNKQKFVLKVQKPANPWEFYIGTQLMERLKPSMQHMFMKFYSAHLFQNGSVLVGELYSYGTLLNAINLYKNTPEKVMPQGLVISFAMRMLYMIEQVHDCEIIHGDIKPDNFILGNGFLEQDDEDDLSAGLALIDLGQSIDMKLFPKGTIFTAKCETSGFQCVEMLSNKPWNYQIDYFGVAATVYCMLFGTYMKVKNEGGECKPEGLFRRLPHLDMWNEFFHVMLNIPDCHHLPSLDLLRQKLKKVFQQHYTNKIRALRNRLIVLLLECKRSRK

Row | IC50 [1] [µM] | IC50 [2] [µM] | SMILES
1 | 3.5 | 0.016 | CCOc1cc(F)c(Cn2nc(-c3ncc(OC)c(Nc4ccncn4)n3)c(C)c2C2CC2)c(F)c1 [Example 2-1-2, 2-[5-cyclopropyl-1-(4-ethoxy-2,6-difluorobenzyl)-4-methyl-1H-pyrazol-3-yl]-5-methoxy-N-(pyrimidin-4-yl)pyrimidin-4-amine]
2 | > 10 | 0.1 | CCOc1cc(F)c(Cn2cc(Cl)c(-c3ncc(OC)c(Nc4ccncn4)n3)n2)c(F)c1 [Example 2-1-6, 2-[4-chloro-1-(4-ethoxy-2,6-difluorobenzyl)-1H-pyrazol-3-yl]-5-methoxy-N-(pyrimidin-4-yl)pyrimidin-4-amine]
3 | > 10 | 0.005 | CCOc1cc(F)c(Cn2nc(-c3nccc(Nc4ccncn4)n3)c(Cl)c2C2CC2)c(F)c1 [Example 2-1-1, 2-[4-chloro-5-cyclopropyl-1-(4-ethoxy-2,6-difluorobenzyl)-1H-pyrazol-3-yl]-N-(pyrimidin-4-yl)pyrimidin-4-amine]
4 | > 10 | 0.017 | CCOc1cc(F)c(Cn2nc(-c3nccc(Nc4ccncn4)n3)c(C)c2C2CC2)c(F)c1 [Example 2-1-3, 2-[5-cyclopropyl-1-(4-ethoxy-2,6-difluorobenzyl)-4-methyl-1H-pyrazol-3-yl]-N-(pyrimidin-4-yl)pyrimidin-4-amine]
5 | > 10 | 3.6 | COc1cnc(-c2cc(OC)n(Cc3ccccc3F)n2)nc1Nc1ccncn1 [Example 2-1-7, 2-[1-(2-fluorobenzyl)-5-methoxy-1H-pyrazol-3-yl]-5-methoxy-N-(pyrimidin-4-yl)pyrimidin-4-amine]
6 | > 10 | 0.052 | CCOc1cc(F)c(Cn2nc(-c3ncc(OC)c(Nc4ccnnc4)n3)c(C)c2C2CC2)c(F)c1 [Example 2-1-4, N-{2-[5-cyclopropyl-1-(4-ethoxy-2,6-difluorobenzyl)-4-methyl-1H-pyrazol-3-yl]-5-methoxy-pyrimidin-4-yl}pyridazin-4-amine]
7 | > 10 | 0.085 | CCOc1cc(F)c(Cn2cc(C)c(-c3ncc(OC)c(Nc4ccncn4)n3)n2)c(F)c1 [Example 2-1-5, 2-[1-(4-ethoxy-2,6-difluorobenzyl)-4-methyl-1H-pyrazol-3-yl]-5-methoxy-N-(pyrimidin-4-yl)pyrimidin-4-amine]
